Laboratory results: article PMC9374744, “Structural basis for receptor selectivity and inverse agonism in S1P5 receptors” (Nature Communications, 2022)
Where “and” joins values, the source holds several entries; their conditions need not be identical. Equal values may be shown once.

Tests used:
[1] = molecular target: human S1P5 Y19A mutant (Homo sapiens, UniProt Q9H228, Y19A); experiment: BRET-based cAMP Gi signaling assay, S1P5 Y19A; conditions: inverse agonism
[2] = molecular target: human S1P5 Y19F mutant (Homo sapiens, UniProt Q9H228, Y19F); experiment: BRET-based cAMP Gi signaling assay, S1P5 Y19F; conditions: for BRET ratio, Supplementary Figure 6b: replicate values, listed as ONO
Sequence of human S1P5 Y19F mutant (Q9H228 whole entry Y19F): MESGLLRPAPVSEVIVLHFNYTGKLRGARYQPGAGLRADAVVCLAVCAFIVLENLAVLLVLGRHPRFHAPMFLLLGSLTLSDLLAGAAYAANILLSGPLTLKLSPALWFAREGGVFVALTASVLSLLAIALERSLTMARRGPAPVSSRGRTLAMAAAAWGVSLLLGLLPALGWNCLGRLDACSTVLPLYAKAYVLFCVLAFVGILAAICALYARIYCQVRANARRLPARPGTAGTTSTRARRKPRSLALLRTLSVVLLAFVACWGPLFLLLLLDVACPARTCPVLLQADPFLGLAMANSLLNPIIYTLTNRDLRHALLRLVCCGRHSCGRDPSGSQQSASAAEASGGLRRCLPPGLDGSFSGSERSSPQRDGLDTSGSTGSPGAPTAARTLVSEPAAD

[3] = molecular target: human S1P5 K24A mutant (Homo sapiens, UniProt Q9H228, K24A); experiment: BRET-based cAMP Gi signaling assay, S1P5 K24A; conditions: inverse agonism
Sequence of human S1P5 K24A mutant (Q9H228 whole entry K24A): as the sequence (Q9H228 whole entry Y19F) above, with F19Y, K24A counted along it

[4] = molecular target: human S1P5 K24R mutant (Homo sapiens, UniProt Q9H228, K24R); experiment: BRET-based cAMP Gi signaling assay, S1P5 K24R; conditions: for BRET ratio, Supplementary Figure 6b: replicate values, listed as ONO; for EC50: inverse agonism
Sequence of human S1P5 K24R mutant (Q9H228 whole entry K24R): as the sequence (Q9H228 whole entry Y19F) above, with F19Y, K24R counted along it

[5] = molecular target: human S1P5 C43F mutant (Homo sapiens, UniProt Q9H228, C43F); experiment: BRET-based cAMP Gi signaling assay, S1P5 C43F; conditions: inverse agonism
Sequence of human S1P5 C43F mutant (Q9H228 whole entry C43F): as the sequence (Q9H228 whole entry Y19F) above, with F19Y, C43F counted along it

[6] = molecular target: human S1P5 T79A mutant (Homo sapiens, UniProt Q9H228, T79A); experiment: BRET-based cAMP Gi signaling assay, S1P5 T79A; conditions: for EC50: inverse agonism; for BRET signal, raw replicates: Suppl. Fig. 6d, listed as ONO
Sequence of human S1P5 T79A mutant (Q9H228 whole entry T79A): as the sequence (Q9H228 whole entry Y19F) above, with F19Y, T79A counted along it

[7] = molecular target: human S1P5 Y89A mutant (Homo sapiens, UniProt Q9H228, Y89A); experiment: BRET-based cAMP Gi signaling assay, S1P5 Y89A; conditions: inverse agonism
Sequence of human S1P5 Y89A mutant (Q9H228 whole entry Y89A): as the sequence (Q9H228 whole entry Y19F) above, with F19Y, Y89A counted along it

[8] = molecular target: human S1P5 N92A mutant (Homo sapiens, UniProt Q9H228, N92A); experiment: BRET-based cAMP Gi signaling assay, S1P5 N92A; conditions: inverse agonism
Sequence of human S1P5 N92A mutant (Q9H228 whole entry N92A): as the sequence (Q9H228 whole entry Y19F) above, with F19Y, N92A counted along it

[9] = molecular target: human S1P5 N92C mutant (Homo sapiens, UniProt Q9H228, N92C); experiment: BRET-based cAMP Gi signaling assay, S1P5 N92C; conditions: inverse agonism
Sequence of human S1P5 N92C mutant (Q9H228 whole entry N92C): as the sequence (Q9H228 whole entry Y19F) above, with F19Y, N92C counted along it

[10] = Figure 2c source data, N/R = no response

Sequence of human S1P5 Y19A mutant (Q9H228 whole entry Y19A): as the sequence (Q9H228 whole entry Y19F) above, with F19A counted along it

O=C(O)CCCN1CCc2cccc(OCCc3cccc4ccccc34)c2CC1 [ONO-5430608, 4-{6-[2-(1-naphthyl)ethoxy]-1,2,4,5-tetrahydro-3H-3-benzazepin-3-yl} butanoic acid]
ONO-5430608 pEC50, single experiments #1-#3 [1, 10]: N/R
ONO, pEC50, M ([1]; n=3, N/R = no response): N/R
BRET ratio, Supplementary Figure 6b ([2]; [ONO] 0.169351 nM): 0.7728 and 0.7856 and 0.7903 and 0.7898 and 0.7857 and 0.7721 and 0.7815 and 0.7858 and 0.7955
BRET ratio, Supplementary Figure 6b ([2]; [ONO] 0.508053 nM): 0.7709 and 0.7829 and 0.7789 and 0.7882 and 0.7908 and 0.7857 and 0.7787 and 0.7826 and 0.7773
BRET ratio, Supplementary Figure 6b ([2]; [ONO] 1.52416 nM): 0.7699 and 0.7813 and 0.7753 and 0.786 and 0.7843 and 0.7814 and 0.7777 and 0.78 and 0.7821
BRET ratio, Supplementary Figure 6b ([2]; [ONO] 4.57247 nM): 0.7759 and 0.7968 and 0.7779 and 0.7827 and 0.7847 (2×) and 0.7768 and 0.7813 and 0.7893
BRET ratio, Supplementary Figure 6b ([2]; [ONO] 13.7174 nM): 0.7824 (2×) and 0.7736 and 0.7864 and 0.7844 and 0.776 and 0.7899 and 0.7904 and 0.7943
ONO-5430608 pEC50, single experiments #1-#3 ([2]; inverse agonism, Figure 2c source data, N/R = no response): N/R
ONO, pEC50, M ([2]; inverse agonism, n=3, N/R = no response): N/R
ONO-5430608 pEC50, single experiments #1-#3 [3, 10]: N/R
ONO, pEC50, M ([3]; n=3, N/R = no response): N/R
BRET ratio, Supplementary Figure 6b ([4]; K24R, [ONO] 0.169351 nM): 0.7619 and 0.7605 and 0.7627 and 0.7643 and 0.765 and 0.7649 and 0.7612 and 0.7652 and 0.7621
BRET ratio, Supplementary Figure 6b ([4]; K24R, [ONO] 0.508053 nM): 0.7573 and 0.7607 and 0.7624 and 0.7643 and 0.7627 and 0.7635 and 0.7628 and 0.761 and 0.7617
BRET ratio, Supplementary Figure 6b ([4]; K24R, [ONO] 1.52416 nM): 0.7542 and 0.7548 and 0.7577 and 0.7568 (2×) and 0.7598 and 0.7585 and 0.7546 and 0.7523
BRET ratio, Supplementary Figure 6b ([4]; K24R, [ONO] 4.57247 nM): 0.7493 and 0.7475 and 0.7463 and 0.7487 and 0.7486 and 0.7479 and 0.7433 and 0.7453 and 0.7422
BRET ratio, Supplementary Figure 6b ([4]; K24R, [ONO] 13.7174 nM): 0.7349 and 0.7366 and 0.7407 and 0.7346 and 0.7367 and 0.7337 and 0.7316 and 0.7355 and 0.7298
EC50 ([4]; ONO, pEC50, M, K24R, mean ± SD, n=3): 4.57 nM
EC50 ([4]; ONO-5430608 pEC50, single experiments #1-#3, K24R, Figure 2c source data): 4.65 nM and 4.87 nM and 4.1 nM
EC50 ([5]; ONO, pEC50, M, C43F, mean ± SD, n=3): 4.47 nM
EC50 ([5]; ONO-5430608 pEC50, single experiments #1-#3, C43F, Figure 2c source data): 3.91 nM and 4.49 nM and 4.96 nM
EC50 ([6]; ONO, pEC50, M, T79A, mean ± SD, n=3): 5.13 nM
EC50 ([6]; ONO-5430608 pEC50, single experiments #1-#3, T79A, Figure 2c source data): 3.81 nM and 5.96 nM and 5.8 nM
BRET signal, raw replicates ([6]; [ONO] 0.169351 nM, T79A): 0.7648 and 0.7694 and 0.7618 (2×) and 0.7719 and 0.7737 and 0.7678 and 0.7602 and 0.7581
BRET signal, raw replicates ([6]; [ONO] 0.508053 nM, T79A): 0.7658 and 0.7637 (2×) and 0.7584 and 0.7703 and 0.7711 and 0.7719 and 0.7599 and 0.7561
BRET signal, raw replicates ([6]; [ONO] 1.52416 nM, T79A): 0.7571 and 0.7588 and 0.7577 and 0.7674 and 0.7689 and 0.7688 and 0.7557 and 0.7543 and 0.7567
BRET signal, raw replicates ([6]; [ONO] 4.57247 nM, T79A): 0.7445 and 0.7467 and 0.7472 (2×) and 0.7504 and 0.7523 and 0.7521 and 0.7458 and 0.7451
BRET signal, raw replicates ([6]; [ONO] 13.7174 nM, T79A): 0.7344 and 0.7321 and 0.7375 and 0.7326 and 0.7336 and 0.7328 and 0.7266 and 0.7286 and 0.7299
BRET signal, raw replicates ([6]; [ONO] 41.1523 nM, T79A): 0.7277 and 0.7202 and 0.7265 and 0.7247 and 0.7224 and 0.7225 and 0.7195 and 0.7262 and 0.7173
BRET signal, raw replicates ([6]; [ONO] 123.457 nM, T79A): 0.7246 and 0.7211 and 0.7132 and 0.7206 and 0.7203 and 0.7177 and 0.7146 and 0.7143 and 0.7168
BRET signal, raw replicates ([6]; [ONO] 370.37 nM, T79A): 0.7198 and 0.7165 and 0.7203 and 0.7175 and 0.72 and 0.7188 and 0.7152 and 0.7138 and 0.7182
BRET signal, raw replicates ([6]; [ONO] 1111.11 nM, T79A): 0.7229 and 0.7217 and 0.7211 and 0.7178 and 0.7185 and 0.7189 and 0.7126 and 0.7148 and 0.7145
BRET signal, raw replicates ([6]; [ONO] 3333.33 nM, T79A): 0.7168 and 0.7147 and 0.7207 and 0.7195 and 0.7142 and 0.7166 and 0.7162 and 0.7151 and 0.7155
ONO-5430608 pEC50, single experiments #1-#3 [7, 10]: N/R
ONO, pEC50, M ([7]; n=3, N/R = no response): N/R and abolishes the functional response
ONO-5430608 pEC50, single experiments #1-#3 [8, 10]: N/R
ONO, pEC50, M ([8]; n=3, N/R = no response): N/R
ONO-5430608 pEC50, single experiments #1-#3 [9, 10]: N/R
ONO, pEC50, M ([9]; n=3, N/R = no response): N/R
